Data published in patent US10154991B2, “Anesthetic compounds and related methods of use” (priority 2012, dated 2018).
Values joined by “and” are separate entries in the source; they are usually repeats but may differ in a detail not shown here. Equal values may be shown once.

How the values were obtained:
[1] = tested on: 68 receptors, ion channels and transporters; assay: radioligand binding screen; conditions: 10 μM, each radioligand
[2] = Octanol:water partition coefficients; format: physicochemical; conditions: 10 mM Tris pH 7.4; read-out: Octanol/Water Partition Coefficient ± SD (converted)
Experimental: One mg of each hypnotic was added to 10 ml of water buffered with 10 mM Tris (pH 7.4) and 0.5 ml or 1 ml of octanol. The mixture was stirred overnight and then centrifuged to more fully separate the organic and aqueous phases. The relative hypnotic concentrations in each phase (i.e. the partition coefficient) were determined by high performance liquid chromatography as described for blood.

[3] = Pharmacokinetics in rats, IV bolus and bolus plus infusion
[4] = in vivo
[5] = molecular target: T1, human α1(L264T), β2 and γ2L subunits of the GABAA receptor (Homo sapiens, UniProt P14867+P47870, L291T); assay: GABAA receptor current in Xenopus oocytes, 2-electrode voltage clamp; format: cell-based
T1 construct: expressed in transfected cells; host or cells: Xenopus oocytes
T1 sequence (P14867 28-456 L291T): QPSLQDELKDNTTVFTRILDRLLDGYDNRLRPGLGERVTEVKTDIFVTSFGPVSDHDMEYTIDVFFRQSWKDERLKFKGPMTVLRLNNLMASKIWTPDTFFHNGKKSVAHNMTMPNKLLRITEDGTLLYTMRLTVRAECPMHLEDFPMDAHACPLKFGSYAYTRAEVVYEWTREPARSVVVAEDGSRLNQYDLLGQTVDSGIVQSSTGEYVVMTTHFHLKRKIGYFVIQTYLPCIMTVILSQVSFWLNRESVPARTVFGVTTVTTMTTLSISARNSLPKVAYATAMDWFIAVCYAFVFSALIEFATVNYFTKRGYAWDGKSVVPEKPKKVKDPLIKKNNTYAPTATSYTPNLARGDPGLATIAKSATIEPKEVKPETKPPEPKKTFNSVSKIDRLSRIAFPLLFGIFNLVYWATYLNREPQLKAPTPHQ
T1 sequence (P47870 25-512 limits assumed): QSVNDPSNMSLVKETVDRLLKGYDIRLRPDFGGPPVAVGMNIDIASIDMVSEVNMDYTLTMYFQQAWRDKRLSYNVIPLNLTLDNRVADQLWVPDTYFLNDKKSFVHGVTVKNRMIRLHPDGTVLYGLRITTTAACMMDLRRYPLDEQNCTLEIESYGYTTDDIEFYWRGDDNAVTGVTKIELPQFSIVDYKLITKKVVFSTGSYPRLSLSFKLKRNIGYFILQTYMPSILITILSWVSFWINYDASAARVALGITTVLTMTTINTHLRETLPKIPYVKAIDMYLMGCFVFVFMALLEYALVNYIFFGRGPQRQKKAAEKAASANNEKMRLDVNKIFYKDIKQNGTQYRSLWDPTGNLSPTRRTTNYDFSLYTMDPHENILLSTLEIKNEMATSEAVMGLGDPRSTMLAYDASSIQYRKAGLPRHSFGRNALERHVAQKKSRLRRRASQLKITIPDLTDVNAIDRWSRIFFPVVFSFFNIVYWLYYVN
T1 sequence (P18507 40-475 partner): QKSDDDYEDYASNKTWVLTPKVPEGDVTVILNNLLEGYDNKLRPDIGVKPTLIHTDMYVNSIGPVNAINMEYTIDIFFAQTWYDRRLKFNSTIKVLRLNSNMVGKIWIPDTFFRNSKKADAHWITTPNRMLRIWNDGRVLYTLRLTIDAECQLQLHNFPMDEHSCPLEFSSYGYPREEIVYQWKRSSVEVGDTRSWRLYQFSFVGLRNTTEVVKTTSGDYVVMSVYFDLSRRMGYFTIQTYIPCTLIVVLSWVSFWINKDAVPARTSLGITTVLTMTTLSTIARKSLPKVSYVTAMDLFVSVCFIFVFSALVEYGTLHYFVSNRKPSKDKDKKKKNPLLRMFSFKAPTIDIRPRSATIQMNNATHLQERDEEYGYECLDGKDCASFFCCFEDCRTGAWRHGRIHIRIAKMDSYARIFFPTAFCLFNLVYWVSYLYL
Experimental: Cyclopropyl-MOC-metomidate induces anesthesia by acting as a positive allosteric modulator of the γ-aminobutyric acid (GABA) type A (GABAA) receptor. Cyclopropyl-MOC-metomidate and its principle metabolite, CPM-acid, were evaluated for their ability to potentiate activation of GABAA receptor current in Xenopus oocytes expressing the human α1(L264T), β2 and γ2L subunits of the GABAA receptor using established methods (Ge et al., 2011). The […] mutant was used rather than wild-type GABAA receptor because it is directly activated by anesthetics, allowing a simpler assessment of the drug potency without the need for concomitant activation by GABA. Anesthetic potency on this mutated GABAA receptor is similar to that on wild-type receptors. Currents were recorded using conventional 2-electrode voltage clamp technique at a holding potential of −50 mV. Oocytes were placed in a 0.04-mL recording chamber and constantly perfused at a rate of 4-6 mL/min. The current response to ABP-700 or CPM-acid was normalized to that produced by 100 μM GABA in the same oocyte and data presented as mean±SD from 3-6 oocytes.

ICR mice = assay: In vivo sedative/hypnotic testing, IV bolus, mice; design: species or system mouse; conditions: mice
Experimental: Animals were housed in a dedicated room at the vivarium of VivoPath Inc., located at Redstone Center, 55 Union Street, Worcester, Mass. Housing and care was as specified in the USDA Animal Welfare Act (9 CFR, Parts 1, 2, and 3) and as described in the Guide for the Care and Use of Laboratory Animals from the National Research Council. Environmental conditions of housing rooms are set at the following ranges: temperature: 70±7° F. (22±4° C.), humidity: 50±20%, light cycle: 12-hour light/12-hour dark cycle—lights on at 7 am and off at 7 pm., air changes: ten or more air changes per hour with 100% fresh air. The animals' body weights were measured prior to the first dose on each experimental day.
Adult ICR mice (20-30 g) were purchased from Harlan (South Easton, Mass.). Drugs were administered as intravenous bolus injection in a tail vein.
Drugs were prepared in either dimethylsulfoxide/saline or saline vehicle or hydroxypropyl-β-cyclodextrin (20% in water, pH 7.0) solution and were administered as an intravenous bolus injection. Animals received 1-4 doses of drug(s) during an experimental day, either ascending doses or different drugs. Doses were administered at intervals equal to the longer of 1 h or 10-times the duration of apparent sedative/hypnotic effects from the previous dose. The sedative/hypnotic properties of the drugs were evaluated by observation of the rats, ranging from mild excitation, mild sedation apparent due to reduced activity, and moderate sedation to hypnosis reflected by loss of righting reflex (LORR, the ability to place rear and hind legs under the body, as well as attenuation/loss of nociceptive reflexes).

rats [6] = assay: Anesthesia (LORR) in rats by IV bolus and continuous infusion; format: in vivo, rat
Experimental: Rats were monitored for anesthesia as assessed by loss of righting reflex (LORR) and the subsequent time to recovery from LORR. Bolus doses of 1.0 mg/kg and greater induced dose-dependent anesthesia. The minimum effective bolus anesthetic dose in rats was approximately 1 mg/kg based on LORR observations. Time to recovery from LORR was dose-dependent.
Cyclopropyl-MOC-metomidate anesthesia in rats by continuous infusion without a bolus induction dose was examined in this study. An infusion of […] induced anesthesia after approximately 3 minutes as measured by LORR. Recovery of righting reflex took approximately 4 minutes following infusion discontinuation whether the infusion was conducted for 5 or 120 minutes.
Cyclopropyl-MOC-metomidate continuous infusion studies were conducted to determine the minimum effective infusion dose required to induce anesthesia. […] When stable anesthesia was observed after 30 minutes of infusion, the infusion rate was reduced to 0.8 mg/kg/min and then to 0.6 mg/kg/min and 0.4 mg/kg/min at 30-minute intervals. Anesthesia and LORR was maintained in all rats at 0.6 mg/kg/min. […] In one rat, the infusion at 0.4 mg/kg/min was discontinued after 7 minutes due to inadequate the anesthesia. The other two rats received the full 30-minute infusion at […] with no further change. Rats recovered from LORR and resumed normal behavior within 2-6 minutes of stopping the infusion. Based on these observations, the minimum effective infusion dose rate required to maintain anesthesia was determined to be approximately 0.5 mg/kg/min. An independent assessment of “minimal immobilizing infusion rate” of cyclopropyl-MOC-metomidate in rats yielded a value of 0.89±0.18 mg/kg/min.

rats [7] = assay: loss of righting reflexes (LORR) assay after IV bolus

For COC(=O)C1(OC(=O)c2cncn2[C@H](C)c2ccccc2)CC1 [Cyclopropyl- methoxycarbonyl metomidate, cyclopropyl-methoxycarbonyl metomidate], the “inhibition of radioligand binding” value [1] was “no more than 25%”, the logD [2] was 2.62 and the “first-phase decline of levels” value ([3]; IV bolus 4-16 mg/kg, first 5 minutes) was greater than 10 fold. The “venous blood concentration when sedated/anesthetized” value ([3]; bolus and continuous infusion, listed as cyclopropyl-MOC-metomidate) was > 250 ng/mL and > 0.8 μM, the “decline of levels after discontinuation of infusion” value ([3]; first 30 minutes after 60-minute infusion) was roughly 50 fold and the “plasma concentrations associated with anesthesia” value [4] was 200 to 3000 nM. For the same compound, the EC50 [5] was 5.8 ± 1.1 µM, the “concentration having minimal effects on current” value [5] was roughly 0.3 µM and the “slope of duration of LORR vs logarithm of dose” value (ICR mice) was “approximately 7”. For the same compound, the “minimum effective infusion dose rate to maintain anesthesia” value (rats [6]) was “approximately 0.5 mg/kg/min”, the “recovery from LORR and normal behavior after stopping the infusion” value (rats [6]; 4 mg/kg bolus then 1 to 0.4 mg/kg/min step-down infusion) was 2 to 6 min and the “minimum effective bolus anesthetic dose” value (rats [6]; IV bolus, LORR) was “approximately 1 mg/kg”. The “duration of anesthesia and LORR” value (rats [6]; bolus dose of 4 mg/kg) was 3 to 8 min, the “minimal immobilizing infusion rate” value (rats [6]; independent assessment) was 0.89 ± 0.18 mg/kg/min and the “recovery of righting reflex after infusion discontinuation” value (rats [6]; infusion for 5 or 120 minutes) was “approximately 4 minutes”. For the same compound, the “time to induction of anesthesia (LORR)” value (rats [6]; infusion of 4 mg/kg without bolus) was “approximately 3 minutes”, the ED50 (rats [7]; Rattus norvegicus, iv, read-out: ED50 ± SD) was 0.69 ± 0.04 mg/kg and the “hypnotic potency compared with methoxycarbonyl etomidate and etomidate” value (rats [7]; rat, in vivo) was “nearly an order of magnitude higher than that of methoxycarbonyl etomidate and similar to that of etomidate”. For the same compound, the “in vivo duration of action compared with methoxycarbonyl etomidate and etomidate” value (rats [7]; rat, in vivo) was “intermediate between those of methoxycarbonyl etomidate and etomidate”.
